Results published in patent US20160153032A9, “METHOD FOR PREDICTING A MANIFESTATION OF AN OUTCOME MEASURE OF A CANCER PATIENT” (Signature Diagnostics AG, priority 2013, published 2016).

Test system: patient derived xenografts (PDXs) of colorectal tumors
Assay: Therapy experiments in patient derived xenograft models, treated to control (T/C) ratio of tumor size
Format: in vivo, NMRI: nu/nu mice
Conditions: monotherapy, 67 PDX models
Protocol: Transplantation of 239 human, primary colorectal tumors of patients with colorectal cancer of all four UICC stages was performed onto nude mice. […] For each drug and each of the 67 xenograft models, five mice were treated in addition to five control animals (335 animals plus 335 controls per drug). At the end of the therapy experiment, the median diameter of the tumors (C) of the 5 control animals is devided by the median diameter of the five treated animals (T).
Shortly after surgery, original colorectal cancer tumor pieces were shipped in gentamicin containing RPMI-1640 medium to the mouse facility. After arrival at the mouse facilities they were transplanted onto immunodeficient mice and were further passaged until a stably grown tumor xenografts has developed.
Surgical colorectal tumor samples were cut into pieces of 3 to 4 mm and transplanted within 30 min s.c. to 3 to 6 immunodeficient NOD/SCID mice (Taconic); the gender of the mice was chosen according to the donor patient. Additional tissue samples were immediately snap-frozen and stored at −80° C. for genetic, genomic, and protein analyses. […] Mice were observed daily for tumor growth. At a size of about 1 cm3, tumors were removed and passaged to naive NMRI: nu/nu mice (Charles River) for chemosensitivity testing. Tumors were passaged no more than 10 times. Numerous samples from early passages were stored in the tissue bank in liquid nitrogen and used for further experiments. […] All xenografts as well as the corresponding primary tumors were subjected to histological evaluation using snap-frozen, haematoxylin-eosin-stained tissue sections.
Each of the 75 tumors was transplanted onto 20 mice (5 controls and 5 for each drug).
The chemotherapeutic response of the passagable tumors was determined in male NMRI: nu/nu mice. For that purpose, one tumor fragment each was transplanted s.c. to a number of mice. At palpable tumor size (50-100 mm^3), 6 to 8 mice each were randomized to treatment and control groups and treatment was initiated. […] Doses and schedules were chosen according to previous experience in animal experiments and represent the maximum tolerated or efficient doses. The injection volume was 0.2 ml/20 g body weight.
Tumor size was measured in two dimensions twice weekly with a caliper-like instrument. Individual tumor volumes (V) were calculated by the formula: V=(length+[width]2)/2 and related to the values at the first day of treatment (relative tumor volume). Median treated to control (T/C) values of relative tumor volume were used for the evaluation of each treatment modality and categorized according to scores (− to ++++;). The mean tumor doubling time of each xenograft model was calculated by comparing the size between 2- and 4-fold relative tumor volumes. Statistical analyses were done with the U test (Mann and Whitney) with P<0.05. The body weight of mice was determined every 3 to 4 days and the change in body weight was taken as variable for tolerability.

Substance: Bevacizumab: humanized monoclonal antibody that binds to vascular endothelial growth factor A (VEGF-A)
- Nonresponder PDXs (T/C</=25 (T/C<25)): 56
- Responder PDXs (T/C</=30, tumor growth inhibited by at least 70%): 13
- Nonresponder PDXs (T/C</=30): 54
- Responder PDXs (T/C</=35 (T/C<35), tumor growth inhibited by at least 65%): 19
- Nonresponder PDXs (T/C</=35 (T/C<35)): 48
